Data from publication PMC7071059, “Targeting Receptor Tyrosine Kinase VEGFR-2 in Hepatocellular Cancer: Rational Design, Synthesis and Biological Evaluation of 1,2-Disubstituted Benzimidazoles” (Molecules, 2020).
Where two headings read alike, the source gives them in different places.

How the values were obtained:
[1] = system: HepG2 cell line; assay: In vitro cytotoxic activity, Sulfo-Rhodamine-B (SRB) assay; type: cell-based, human; details: read-out: IC50 (μM) on HepG2 Cell Line
[2] = target: VEGFR-2 (Homo sapiens, UniProt P35968); assay: Biochemical kinase assay (Kinase-Glo Plus luminescence)
Sequence of VEGFR-2 (P35968 20-1356): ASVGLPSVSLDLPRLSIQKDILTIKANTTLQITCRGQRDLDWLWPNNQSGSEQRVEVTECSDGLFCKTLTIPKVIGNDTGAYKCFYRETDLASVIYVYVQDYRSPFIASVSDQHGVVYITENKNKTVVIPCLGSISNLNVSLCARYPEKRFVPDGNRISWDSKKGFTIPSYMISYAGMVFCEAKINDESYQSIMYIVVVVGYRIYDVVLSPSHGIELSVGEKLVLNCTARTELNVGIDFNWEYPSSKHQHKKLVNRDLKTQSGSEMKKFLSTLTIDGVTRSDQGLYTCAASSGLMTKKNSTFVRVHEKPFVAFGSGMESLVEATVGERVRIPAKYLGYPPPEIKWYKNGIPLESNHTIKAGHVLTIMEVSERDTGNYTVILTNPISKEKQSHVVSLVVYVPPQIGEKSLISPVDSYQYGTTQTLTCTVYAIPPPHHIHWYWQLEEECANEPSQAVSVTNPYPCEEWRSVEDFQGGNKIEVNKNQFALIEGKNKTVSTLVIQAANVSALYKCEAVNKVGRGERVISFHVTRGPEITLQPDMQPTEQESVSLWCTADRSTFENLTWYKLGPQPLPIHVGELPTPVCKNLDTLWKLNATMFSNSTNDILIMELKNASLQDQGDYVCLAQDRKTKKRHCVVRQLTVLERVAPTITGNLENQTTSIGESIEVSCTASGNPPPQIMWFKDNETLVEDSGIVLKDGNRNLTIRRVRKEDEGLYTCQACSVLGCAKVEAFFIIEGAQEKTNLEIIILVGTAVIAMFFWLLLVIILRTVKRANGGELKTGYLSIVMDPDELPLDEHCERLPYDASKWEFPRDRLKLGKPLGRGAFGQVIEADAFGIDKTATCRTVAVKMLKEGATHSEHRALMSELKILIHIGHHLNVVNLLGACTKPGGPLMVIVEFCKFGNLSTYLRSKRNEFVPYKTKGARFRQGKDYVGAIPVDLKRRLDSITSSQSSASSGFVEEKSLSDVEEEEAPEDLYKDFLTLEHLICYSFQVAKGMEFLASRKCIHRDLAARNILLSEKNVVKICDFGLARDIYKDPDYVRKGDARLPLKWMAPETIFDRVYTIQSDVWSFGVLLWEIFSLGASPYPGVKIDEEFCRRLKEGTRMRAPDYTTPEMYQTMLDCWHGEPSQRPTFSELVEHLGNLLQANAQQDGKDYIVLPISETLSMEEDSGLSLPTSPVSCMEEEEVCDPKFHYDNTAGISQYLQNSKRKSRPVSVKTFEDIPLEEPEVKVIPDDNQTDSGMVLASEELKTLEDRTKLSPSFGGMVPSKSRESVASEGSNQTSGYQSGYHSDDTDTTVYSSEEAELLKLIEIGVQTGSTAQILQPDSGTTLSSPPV
Protocol: This assay was carried out using the VEGFR-2 kinase enzyme system or FGFR-1 kinase enzyme system and Kinase-Glo Plus luminescence kinase (Promega) kits according to the manufacturers´ protocols. This assay evaluated the activity of kinase by measuring the amount of ATP remaining in solution after a kinase reaction. The luminescent signal from the assay was related to the quantity of ATP available, which was inversely proportional to the amount of kinase activity. […] Subsequently, serial dilutions were carried out, and 5 µL of the dilution was added to a 50 µL reaction. The enzymatic reactions were performed at 30 °C for 45 minutes. The 50 µL reaction mixture contained 40 mM Tris, pH 7.4, 10 mM MgCl2, 0.1 mg/mL BSA, 1 mM DTT, 0.2 mg/ml Poly (Glu, Tyr) substrate, 10 μM ATP and protein. After the enzymatic reaction, 50 µL of Kinase-Glo Plus Luminescence kinase assay solution was added to each reaction, and the plates were incubated for 15 minutes at room temperature. The luminescence signal was measured using a Tecan–spark multimode microplate reader. The difference between luminescence intensities in the absence of Kinase (Lut) and in the presence of Kinase (Luc) was defined as 100% activity (Lut − Luc). Using a luminescence signal (Lu) in the presence of the compound, % activity was calculated as: % activity = {(Lut − Lu)/(Lut − Luc)}×100%, where Lu = the luminescence intensity in the presence of the compound.

[3] = system: HepG2 cell line; set-up: method as in PMID 28505536; details: earlier 2-furylbenzimidazole, comparison value; cited from earlier work
[4] = Homo sapiens, HepG2, 48 h, SRB assay, 48 h, mean of three independent experiments
[5] = SRB assay, 48 h, mean of three independent experiments

SMILES	IC50 [1, 4] [µM]	melting point [°C]	also measured
CC(C)c1nc2ccccc2[nH]1 [Compound 4a, 2-Isopropyl-1H-benzo[d]imidazole]	> 200	233 to 235	
Cc1ccc(-c2nc3ccccc3[nH]2)o1 [Compound 4b, 2-(5-Methylfuran-2-yl)-1H-benzo[d]imidazole]	103		
CC(C)c1nc2ccccc2n1CC(=O)c1ccc(C#N)cc1 [Compound 6, 4-(2-(2-Isopropyl-1H-benzo[d]imidazol-1-yl)acetyl)benzonitrile]	13.5	209 to 211	
COC(=O)Cn1c(C(C)C)nc2ccccc21 [Compound 8a, Methyl 2-(2-isopropyl-1H-benzo[d]imidazol-1-yl)acetate]	> 200	93 to 95	
COC(=O)Cn1c(-c2ccc(C)o2)nc2ccccc21 [Compound 8b, Methyl 2-(2-(5-methylfuran-2-yl)-1H-benzo[d]imidazol-1-yl)acetate]	> 150		
CCOC(=O)Cn1c(C(C)C)nc2ccccc21 [Compound 8c, Ethyl 2-(2-isopropyl-1H-benzo[d]imidazol-1-yl)acetate]	> 200	103 to 105	
CCOC(=O)Cn1c(-c2ccc(C)o2)nc2ccccc21 [Compound 8d]	> 150		
CC(C)c1nc2ccccc2n1CC(=O)O [Compound 9a, 2-(2-Isopropyl-1H-benzo[d]imidazol-1-yl)acetic acid]	32.5	238 to 240	
CC(C)c1nc2ccccc2n1CC(=O)NN [Compound 10a, 2-(2-Isopropyl-1H-benzo[d]imidazol-1-yl)acetohydrazide]	301	243 to 245	
CC(C)c1nc2ccccc2n1CC(=O)N/N=C/c1ccccc1Cl [Compound 13a, (E)-N′-(2-Chlorobenzylidene)-2-(2-isopropyl-1H-benzo[d]imidazol-1-yl)acetohydrazide]	158	211 to 213	
CC(C)c1nc2ccccc2n1CC(=O)N/N=C/c1cccc(O)c1 [Compound 13b, (E)-N′-(3-Hydroxybenzylidene)-2-(2-isopropyl-1H-benzo[d]imidazol-1-yl)acetohydrazide]	137	249 to 251	
CC(C)c1nc2ccccc2n1CC(=O)N/N=C/c1ccc(O)cc1 [Compound 13c, (E)-N′-(4-Hydroxybenzylidene)-2-(2-isopropyl-1H-benzo[d]imidazol-1-yl)acetohydrazide]	140	296 to 298	
COc1ccc(/C=N/NC(=O)Cn2c(C(C)C)nc3ccccc32)cc1 [Compound 13d, (E)-2-(2-Isopropyl-1H-benzo[d]imidazol-1-yl)-N′-(4-methoxybenzylidene)acetohydrazide]	11.9	190 to 192	IC50 [2]: 0.09 ± 0.002 µM
CC(C)c1nc2ccccc2n1CC(=O)N/N=C/c1ccc(N(C)C)cc1 [Compound 13e, (E)-N′-(4-(Dimethylamino)benzylidene)-2-(2-isopropyl-1H-benzo[d]imidazol-1-yl)acetohydrazide]	87	225 to 227	
COc1ccc(OC)c(/C=N/NC(=O)Cn2c(C(C)C)nc3ccccc32)c1 [Compound 13f]	11.9 to 15.6	202 to 204	IC50 [1, 5]: 16.7 µM; IC50 [2]: 0.4 ± 0.01 µM
COc1cc(/C=N/NC(=O)Cn2c(C(C)C)nc3ccccc32)ccc1O [Compound 13g, (E)-N′-(4-Hydroxy-3-methoxybenzylidene)-2-(2-isopropyl-1H-benzo[d]imidazol-1-yl)acetohydrazide]	13.9	165 to 167	

SMILES	IC50 [1, 4] [µM]	melting point [°C]	also measured
Cc1ccc(/C=N/NC(=O)Cn2c(C(C)C)nc3ccccc32)o1 [Compound 13h, (E)-2-(2-Isopropyl-1H-benzo[d]imidazol-1-yl)-N′-((5-methylfuran-2-yl)methylene)acetohydrazide]	59.9		
C/C(=N\NC(=O)Cn1c(C(C)C)nc2ccccc21)c1ccccc1C [Compound 14b, (E)-2-(2-Isopropyl-1H-benzo[d]imidazol-1-yl)-N′-(1-(o-tolyl)ethylidene)acetohydrazide]	26.2	238 to 240	
C/C(=N\NC(=O)Cn1c(C(C)C)nc2ccccc21)c1ccc(Br)cc1 [Compound 14c, (E)-N′-(1-(4-Bromophenyl)ethylidene)-2-(2-isopropyl-1H-benzo[d]imidazol-1-yl)acetohydrazide]	112	215 to 217	
C/C(=N\NC(=O)Cn1c(C(C)C)nc2ccccc21)c1ccc(Br)c([N+](=O)[O-])c1 [Compound 14d, (E)-N′-(1-(4-Bromo-3-nitrophenyl)ethylidene)-2-(2-isopropyl-1H-benzo[d]imidazol-1-yl)acetohydrazide]	62	231 to 233	
COC(=O)COc1ccc(/C=N/NC(=O)Cn2c(C(C)C)nc3ccccc32)cc1OC [Compound 19a, Methyl-(E)-2-(4-((2-(2-(2-isopropyl-1H-benzo[d]imidazol-1-yl)acetyl)hydrazono)methyl)-2-methoxyphenoxy)acetate]	109	175 to 177	
COC(=O)COc1ccc(/C=N/NC(=O)Cn2c(-c3ccc(C)o3)nc3ccccc32)cc1OC [Compound 19b, Methyl-(E)-2-(2-methoxy-4-((2-(2-(2-(5-methylfuran-2-yl)-1H-benzo[d]imidazol-1-yl)acetyl)hydrazono)methyl)phenoxy)acetate]	71.7	150 to 152	
CCOC(=O)COc1ccc(/C=N/NC(=O)Cn2c(C(C)C)nc3ccccc32)cc1OC [Compound 19c, Ethyl-(E)-2-(4-((2-(2-(2-isopropyl-1H-benzo[d]imidazol-1-yl)acetyl)hydrazono)methyl)-2-methoxyphenoxy)acetate]	133	93 to 95	
CCOC(=O)COc1ccc(/C=N/NC(=O)Cn2c(-c3ccc(C)o3)nc3ccccc32)cc1OC [Compound 19d, Ethyl-(E)-2-(2-methoxy-4-((2-(2-(2-(5-methylfuran-2-yl)-1H-benzo[d]imidazol-1-yl)acetyl)hydrazono)methyl)phenoxy)acetate]	114	136 to 138	
COc1cc(C=O)ccc1OCCOc1ccc(/C=N/NC(=O)Cn2c(C(C)C)nc3ccccc32)cc1OC [Compound 22a, (E)-N′-(4-(2-(4-Formyl-2-methoxyphenoxy)ethoxy)-3-methoxybenzylidene)-2-(2-isopropyl-1H-benzo[d]imidazol-1-yl)acetohydrazide]	> 100	218 to 220	IC50 [1, 5]: 123 µM
COc1cc(C=O)ccc1OCCOc1ccc(/C=N/NC(=O)Cn2c(-c3ccc(C)o3)nc3ccccc32)cc1OC [Compound 22b, (E)-N′-(4-(2-(4-Formyl-2-methoxyphenoxy)ethoxy)-3-methoxybenzylidene)-2-(2-(5-methylfuran-2-yl)-1H-benzo[d]imidazol-1-yl)acetohydrazide]	> 100	203 to 205	IC50 [1, 5]: 107 µM
Cc1ccc(S(=O)(=O)NC(=O)NNC(=O)Cn2c(C(C)C)nc3ccccc32)cc1 [Compound 24a, 2-(2-(2-Isopropyl-1H-benzo[d]imidazol-1-yl)acetyl)-N-tosylhydrazine-1-carboxamide]	80.7		
COc1ccc(NC(=S)NNC(=O)Cn2c(C(C)C)nc3ccccc32)cc1 [Compound 24b, 2-(2-(2-Isopropyl-1H-benzo[d]imidazol-1-yl)acetyl)-N-(4-methoxyphenyl)hydrazine-1-carbothioamide]	15.9	232 to 234	
COc1ccc(NC(=S)NNC(=O)Cn2c(-c3ccc(C)o3)nc3ccccc32)cc1 [Compound 24c, N-(4-Methoxyphenyl)-2-(2-(2-(5-methylfuran-2-yl)-1H-benzo[d]imidazol-1-yl)acetyl)hydrazine-1-carbothioamide]	8.73	189 to 191	
Cc1ccc(-c2nc3ccccc3n2CC(=O)N/N=C/c2ccccc2Cl)o1 [IX]			IC50 [3]: 22.6 µM
CNC(=O)c1cc(Oc2ccc(NC(=O)Nc3ccc(Cl)c(C(F)(F)F)c3)cc2)ccn1 [Sorafenib (I), sorafenib, reference compound]			IC50 ([1]; Homo sapiens, HepG2, 48 h): 11 µM
